The values below come from ChEMBL document CHEMBL1151006, “Synthesis of bicyclic thiazolidine PAF antagonists” (Bioorg Med Chem Lett, 1993).

For orientation: half-life means the time in which the quantity being followed falls by half. A low value points to fast loss.

The data set in a line: Half life in rats after intravenous administration. It counts as ADME, organism-based. The settings on record: rat, in vivo.

Compound `O=C(c1ccccc1)c1cccc(NC(=O)[C@@H]2CSC(c3cccnc3)N2)c1` (some centres not stated) showed a half-life of 60 min.

In the case of `O=C(c1ccccc1)c1cccc(NC(=O)[C@H]2OC(=O)N3[C@@H](c4cccnc4)SC[C@@H]23)c1`, the half-life was 42 min.
